Experimental data: patent publication US7893083B2, “Method of treating genital herpes” (priority 2003, dated 2011)

How the values were obtained:
viral rhinitis [1] = test: Viral rhinitis test subjects, delayed or once-daily Aldara in each nostril (Example 2); format: in vivo, human; conditions: applied more than 2 days after the onset of the cold symptoms
Protocol: The swab head was inserted into a naris.
Infected Test Subject #1 developed a sore throat with tingling in larynx, pharynx and uvula. 12 hours later, Subject 1 also developed congestion of the nose. One day later, the subject's initial symptoms intensified, and the subject further developed systemic symptoms such as malaise and headache. More than twenty four hours after the initial viral rhinitis symptoms appeared, Aldara™ was applied in each nostril with a Q-tip swab.
A 4 mm^3 dab of salve was placed on the swab head. The swab head was inserted into a naris. […] The subject was also treated with 2 teaspoons of standard cough suppressant guaifenesin/dextromethorphan (Wal-Tussin). The next day, malaise and headache were more pronounced and Aldara™ was reapplied with Q-tip to each nostril as described above. Also, 2 teaspoons of guaifenesin/dextromethorphan was administered.
Infected Test Subject #2 developed common cold with rhinorrhea and nose congestion. Aldara™ was applied once to each nostril every day for 3 days.

HSV-2 [2] = test: Remission interval between genital herpes outbreaks after intranasal Aldara regimens (Example 3); format: in vivo, human; conditions: after 2 to 4 regimens
Protocol: The patients were diagnosed with HSV-2 due to typical outbreak symptoms such as lesions. […] Thus, the contents were applied thoroughly along the inside surface of both nares. Initial application of Aldara™ to all the four patients occurred within 12 hours after the appearance of first symptoms resembling an outbreak of genital herpes. The application procedure was repeated every 12 hours up to 48 hours so that a total of four applications was administered to each patient.
Prior to treatment with Aldara™, the four patients were having herpes outbreaks at fairly regular intervals. Patients 1, 2 and 3 were experiencing outbreaks every 2 to 3 months and Patient 4 was having outbreaks once a month. Each of the four patients then began treatment by undergoing the 48 hour Aldara™ regimen detailed above each time he or she experienced an outbreak. After undergoing 2 to 4 regimens, each patient experienced a prolonged period of remission before the next outbreak.

TNF-a = TNF-a ELISA of nasal secretions after nasal application of imiquimod in macaques; format: in vivo, Macaca mulatta
Source text: (§1) The assay was limited to examining nasal secretions following nasal application (both nares) of imiquimod, because it is believed that this is the entry site where an immune response will be first observed. The assay evaluated the appearance of […] IFN-α and TNF-a in Macaca mulatta macaques and compared it with a control group treated with a base cream (without imiquimod) or simply anesthetized for the same time interval as the treated group.
(§2) The significance of the data is two-fold. First, intranasal administration of imiquimod cream (5%) produced enough IFN-a in a short period of time, so the cream can be applied daily in order to have 5-6 h of good efficacy. Thus, for example, one can begin applying the cream prior to encountering a known viral area such as an airplane. However, the cream has known cytotoxic effects (mediated through the cytokine production), especially if applied for weeks, so extended application would not be recommended. In the assay, TNF-a remained high for at least 6 h. In the treated group of macaques, the cream was washed away with warm water after the experiments. […] The cream needs to be applied to induce maximum concentration of IFN-a, but it may be removed when TNF-a continues to be elevated (after 6 h).
(§3) The control group (n=3) and the treated group (n=5) were sedated with glycopyrolate 0.01 mg/kg+acetaminophen 0.2 mg/kg and anesthetized with zolazepam (Telazol) 10 mg/kg intramuscular. […] Physical examination after each sample and at 6 h, 12 h, and 24 h post anesthesia consisted of examining each macaque for fever, erythema, erosion, flaking, and lacrimation.
(§4) IFN-a and TNF-a enzyme-linked immunoabsorbent assays (ELISA). Levels of IFN-a and TNF-a were measured using commercially available multispecies kit (PBL Biomedical Laboratories) (product #41105-1). The range of detection was 10-500 pg/ml (high sensitivity protocol).

IFN-a mRNA = IFN-a mRNA in postnasal swabs by quantitative competitive RT-PCR in macaques
viral rhinitis [3] = test system: viral rhinitis
Source text: In each of the tests, an imiquimod salve was used. The formulation was that commonly used to treat warts and sold under the brand name Aldara™. The salve was applied to each naris of the test subject by use of a common cotton swab. Either a 4 mm^3 dab of salve or ½ pack of 5% Aldara™ was placed on the swab head. The swab head was inserted into a naris. The swab was moved around inside the naris to distribute the salve over the mucosal membrane of the naris. Immediately, after application of the Aldara™ to the subject's first naris, a swab was used to apply the Aldara™ to the subject's second naris. Immediately after application to each naris, the salve was massaged into the mucosal membrane of each naris.
A test sample of six patients was treated for viral rhinitis using imiquimod (5% topical cream Aldara™, manufactured by 3M Corporation, St. Paul, Minn.). The patients were diagnosed with viral rhinitis due to initial symptoms such as congested nasal passages (rhinitis), nasal drip or rhinorrhea, and sneezing. Contents from ½ packet of a standard imiquimod formulation such as, for example, Aldara™ were applied with a cotton swab into both nares by massaging gently but thoroughly. Approximately the contents from ½ packet of 5% Aldara™ was applied thoroughly along the inside surface of both nares. Initial application of Aldara™ to all the six patients occurred within 24 hours after the appearance of first symptoms resembling viral rhinitis, in order to maximize the efficiency of imiquimod in stimulating the immune system when the viral load is presumably smaller. The procedure was repeated every 12 hours for up to 48 hours. The imiquimod packets were refrigerated after opening, and the remaining contents were used for subsequent applications.
The patients were monitored for changes in the viral rhinitis symptoms.

[4] = Physical examination of macaques for adverse or cytotoxic effects after nasal Aldara
HSV-2 [5] = conditions: 235 human patients; topical application to herpes lesions; cited from earlier work
IFN-a = IFN-a ELISA of nasal secretions after nasal application of imiquimod in macaques; format: in vivo, Macaca mulatta
Source text: as §1, §2, §3, §4

TLR7 = molecular target: T1, TLR7 (Homo sapiens, UniProt Q9NYK1); conditions: cited from earlier work
T1 sequence (Q9NYK1 27-1049): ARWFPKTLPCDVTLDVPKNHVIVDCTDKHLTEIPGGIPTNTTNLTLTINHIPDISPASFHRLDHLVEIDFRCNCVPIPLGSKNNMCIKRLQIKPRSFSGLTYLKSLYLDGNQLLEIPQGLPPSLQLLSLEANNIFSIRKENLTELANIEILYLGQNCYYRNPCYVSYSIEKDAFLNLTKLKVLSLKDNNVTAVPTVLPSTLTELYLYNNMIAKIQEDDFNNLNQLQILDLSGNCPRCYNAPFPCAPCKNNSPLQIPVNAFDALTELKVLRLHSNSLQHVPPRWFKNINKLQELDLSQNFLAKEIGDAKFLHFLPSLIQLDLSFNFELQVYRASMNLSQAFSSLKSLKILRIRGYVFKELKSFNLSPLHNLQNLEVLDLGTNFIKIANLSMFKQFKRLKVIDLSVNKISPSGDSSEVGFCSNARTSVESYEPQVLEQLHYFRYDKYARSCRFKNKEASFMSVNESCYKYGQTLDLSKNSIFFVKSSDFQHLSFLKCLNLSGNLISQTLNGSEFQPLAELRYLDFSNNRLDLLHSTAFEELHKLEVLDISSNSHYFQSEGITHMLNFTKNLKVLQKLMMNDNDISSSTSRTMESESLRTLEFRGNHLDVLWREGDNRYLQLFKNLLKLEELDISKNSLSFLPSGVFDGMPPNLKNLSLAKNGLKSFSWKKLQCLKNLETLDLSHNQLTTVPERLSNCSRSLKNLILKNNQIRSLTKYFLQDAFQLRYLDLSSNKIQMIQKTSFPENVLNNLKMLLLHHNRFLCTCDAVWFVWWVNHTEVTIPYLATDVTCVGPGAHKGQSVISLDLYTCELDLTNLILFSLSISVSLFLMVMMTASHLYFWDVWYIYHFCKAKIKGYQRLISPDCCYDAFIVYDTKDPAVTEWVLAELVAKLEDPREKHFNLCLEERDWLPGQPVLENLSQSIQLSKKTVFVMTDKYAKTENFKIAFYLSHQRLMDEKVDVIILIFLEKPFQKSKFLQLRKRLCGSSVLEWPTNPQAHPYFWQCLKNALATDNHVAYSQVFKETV

[6] = test system: purified plasmacytoid dendritic cells; conditions: cited from earlier work
[7] = nasal secretions, p<0.0001 versus control group

CC(C)Cn1cnc2c(N)nc3ccccc3c21 [imiquimod]
Effectiveness of the treatment with late application (viral rhinitis [1]): decreased markedly
Post-Treatment Remission Interval (Approximate) (HSV-2 [2]; Patient 1, pre-treatment interval 2-3 months): ~3.5 years
Post-Treatment Remission Interval (Approximate) (HSV-2 [2]; Patient 2, pre-treatment interval 2-3 months): ~6 months
Post-Treatment Remission Interval (Approximate) (HSV-2 [2]; Patient 3, pre-treatment interval 2-3 months): ~10 months
Post-Treatment Remission Interval (Approximate) (HSV-2 [2]; Patient 4, pre-treatment interval 1 month): ~2 months
TNF-a level relative to the controls (TNF-a; 6 h post nasal treatment): 3 times
TNF-a level (TNF-a; 6 h post treatment): remaining high
TNF-a increase over time (ELISA, FIG. 6B) (TNF-a; [7]): 540 ng/mg protein
Time of TNF-a peak (TNF-a; post treatment): 4 h
IFN-a level in treated animals, mean (IFN-a mRNA; samples taken 3-5 h after application, p=0.004 versus controls): 2.3 IFN-a/albumin mRNA×10^3
IFN-a level in treated animals, range (IFN-a mRNA; samples taken 3-5 h after application, related to albumin mRNA): 0.84-5.20 mRNA×10^3
Increase of IFN-a messenger RNA levels in nasal secretions compared with untreated macaques (IFN-a mRNA; single nasal application): 2-5 fold
Effect of accidental inhalation of imiquimod (viral rhinitis [3]; one patient inhaled imiquimod): severe flu-like symptoms that spontaneously subsided within 24 hours
Aggravation of ulcerative colitis during treatment (viral rhinitis [3]; one patient with ulcerative colitis): did not suffer any further aggravation
Complete disappearance of symptoms (nasal congestion, sore throat, headache; malaise), time of treatment (viral rhinitis [3]; six patients, untreated viral rhinitis about a week or 10 days): ≤ 48 h
Side effects reported by patients (viral rhinitis [3]; throughout the course of treatment): No untoward side effects
Adverse reactions to treatment in macaques ([4]; cream used during short period of time): No adverse reactions
Cytotoxic effects on examination ([4]; examined at 6 h, 12 h, or 24 h, cream washed away after the experiments): No animal had cytotoxic effects when examined at 6 h, 12 h, or 24 h, except one animal, which had an episode of lacrimation for 12 h post treatment
Outbreak recurrence times, imiquimod versus placebo (HSV-2 [5]): no statistically significant difference
IFN-a level relative to basal level (IFN-a; 3 h post treatment): 5 times basal level
IFN-a level (IFN-a; 4 h post treatment): near maximal level
IFN-a level (IFN-a; 6 h post treatment): near basal level
IFN-a increase over time (ELISA, FIG. 6A) (IFN-a; [7]): 630 ng/mg protein
Time of rapid induction of IFN-a post treatment (IFN-a; single nasal application): 1 to 5 h
Activity at TLR7 (TLR7): TLR7 agonists
IFN-a induction [6]: induce IFN-a
